These results are taken from ChEMBL document CHEMBL1123613, “2,4-Diamino-6,7-dimethoxyquinazolines. 3. 2-(4-Heterocyclylpiperazin-1-yl) derivatives as alpha 1-adrenoceptor antagonists and antihypertensive agents” (J Med Chem, 1987).

The target in assay [1] is T1, Adrenergic receptor alpha-2 (Rattus norvegicus) (UniProt P22086+P19328+P22909). The assay can be described thus: Percent displacement of [3H]clonidine from alpha-2-adrenoceptor in rat brain homogenates at 10E-6 M; Activity of less than 50%. It is filed as tissue-based.
In assay [2] the test system is Rattus norvegicus. The assay can be described thus: Antihypertensive activity was determined by percent reduction in blood pressure after 6 hr upon peroral administration of 5 mg/kg dose in spontaneously hypertensive rats(SHR). The note with it: route oral. In kind it is functional.
Assay [3] addresses T2, Adrenergic receptor alpha-1 (Rattus norvegicus, UniProt P15823+P23944+P43140).
T2 sequence (P15823 whole entry): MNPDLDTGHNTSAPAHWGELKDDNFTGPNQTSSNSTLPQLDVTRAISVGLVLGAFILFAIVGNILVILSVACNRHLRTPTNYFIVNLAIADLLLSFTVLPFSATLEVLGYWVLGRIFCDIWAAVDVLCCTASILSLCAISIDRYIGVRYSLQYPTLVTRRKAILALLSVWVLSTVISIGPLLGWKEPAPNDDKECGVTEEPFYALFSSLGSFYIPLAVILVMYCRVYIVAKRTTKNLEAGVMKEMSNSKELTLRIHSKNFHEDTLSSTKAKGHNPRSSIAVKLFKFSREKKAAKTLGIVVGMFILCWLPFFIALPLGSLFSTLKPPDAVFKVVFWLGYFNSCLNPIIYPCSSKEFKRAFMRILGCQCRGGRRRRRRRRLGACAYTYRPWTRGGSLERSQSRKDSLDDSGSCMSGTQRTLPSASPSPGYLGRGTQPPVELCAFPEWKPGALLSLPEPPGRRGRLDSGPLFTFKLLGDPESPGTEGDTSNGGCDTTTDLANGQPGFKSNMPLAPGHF
T2 sequence (P23944 whole entry): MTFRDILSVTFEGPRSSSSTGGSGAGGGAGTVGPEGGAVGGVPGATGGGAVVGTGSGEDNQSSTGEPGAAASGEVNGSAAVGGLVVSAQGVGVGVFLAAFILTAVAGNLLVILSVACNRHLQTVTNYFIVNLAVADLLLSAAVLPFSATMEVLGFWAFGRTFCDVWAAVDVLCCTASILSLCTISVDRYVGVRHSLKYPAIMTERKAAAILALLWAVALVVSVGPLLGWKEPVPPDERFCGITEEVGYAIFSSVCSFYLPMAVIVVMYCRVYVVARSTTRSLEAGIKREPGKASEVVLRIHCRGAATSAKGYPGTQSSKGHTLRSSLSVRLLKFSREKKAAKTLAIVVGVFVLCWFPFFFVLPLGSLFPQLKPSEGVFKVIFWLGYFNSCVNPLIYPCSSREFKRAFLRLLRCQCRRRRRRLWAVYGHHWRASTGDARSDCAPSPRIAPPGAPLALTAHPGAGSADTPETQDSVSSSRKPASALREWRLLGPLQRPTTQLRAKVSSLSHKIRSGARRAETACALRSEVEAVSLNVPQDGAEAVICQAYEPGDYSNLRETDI
T2 sequence (P43140 whole entry): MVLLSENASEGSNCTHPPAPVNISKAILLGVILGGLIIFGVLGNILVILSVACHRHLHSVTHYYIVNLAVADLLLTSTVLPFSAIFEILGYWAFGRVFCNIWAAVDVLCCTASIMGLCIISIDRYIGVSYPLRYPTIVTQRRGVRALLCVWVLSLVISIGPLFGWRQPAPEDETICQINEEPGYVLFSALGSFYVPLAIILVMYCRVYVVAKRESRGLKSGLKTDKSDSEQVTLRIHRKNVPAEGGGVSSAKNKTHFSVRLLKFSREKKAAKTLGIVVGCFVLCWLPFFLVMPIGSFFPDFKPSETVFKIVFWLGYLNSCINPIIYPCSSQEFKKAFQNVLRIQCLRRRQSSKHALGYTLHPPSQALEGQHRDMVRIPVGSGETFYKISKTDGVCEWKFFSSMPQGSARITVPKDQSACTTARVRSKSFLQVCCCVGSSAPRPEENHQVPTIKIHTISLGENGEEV
Description: Binding affinity against alpha-1-adrenoceptor in rat brain homogenates [3H]-prazosin displacement. In kind it is tissue-based.

The test system of assay [4] is Rattus norvegicus. The assay can be described thus: Antihypertensive activity was determined by percent reduction in blood pressure after 1 hr upon peroral administration of 5 mg/kg dose in spontaneously hypertensive rats(SHR). It is filed as functional. The note with it: route oral.
In assay [5] the test system is Rattus norvegicus. The assay can be described thus: Antihypertensive activity was determined by percent reduction in blood pressure after 4 hr upon peroral administration of 3 mg/kg dose in spontaneously hypertensive rats(SHR). In kind it is functional. As to conditions: route oral.
Assay [6] has as its system Rattus norvegicus. The assay can be described thus: Antihypertensive activity was determined by percent reduction in blood pressure after 6 hr upon peroral administration of 5 mg/kg dose in spontaneously hypertensive rats(SHR); not significant because of blood pressure falls below 10%. The note with it: route oral. It is filed as functional.
Assay [7] has as its system Rattus norvegicus. Description: Antihypertensive activity was determined by percent reduction in blood pressure after 1 hr upon peroral administration of 5 mg/kg dose in spontaneously hypertensive rats(SHR); not significant because of blood pressure falls below 10%. In kind it is functional. The note with it: route oral.
Assay [8] deals with T1, Adrenergic receptor alpha-2 (Rattus norvegicus). The assay can be described thus: Percent displacement of [3H]clonidine to alpha-2-adrenoceptor was determined in rat brain homogenates at 10E-6 M. In kind it is tissue-based.

The source made the active and inactive calls. The rule behind the calls is not given here.

On to `CCCOc1ccnc(N2CCN(c3nc(N)c4cc(OC)c(OC)cc4n3)CC2)n1`, for which the Displacement entry in assay [1] was “inactive”. In addition, the Reduction amounted to 22% in the assay on Rattus norvegicus [2] and 34% with Rattus norvegicus [4]. Also, the Ki in assay [3] stood at 0.32 nM.

As for `COc1cc2nc(N3CCN(C(=O)c4ccco4)CC3)nc(N)c2cc1OC` [PRAZOSIN], the Reduction in the assay on Rattus norvegicus [2] stood at 29%; with Rattus norvegicus [4], 33%.

Turning to `COc1cc2nc(N3CCN(c4cccnn4)CC3)nc(N)c2cc1OC`, in assay [1], the Displacement result is “inactive”. In assay [3], this compound showed a Ki of 0.4 nM. The Reduction in the assay with Rattus norvegicus [5] is on record as 20%; in the assay on Rattus norvegicus [4], 22%.

Consider `COc1cc2nc(N3CCN(c4nccc(C)n4)CC3)nc(N)c2cc1OC`, for which the Displacement entry in assay [1] was “inactive”. Also, the values for the Reduction in the assay with Rattus norvegicus [2] and in the assay on Rattus norvegicus [4] were 15% and 28%, respectively. The same compound displayed an inhibition constant (Ki) in assay [3] of 0.92 nM.

Regarding `COc1ccnc(N2CCN(c3nc(N)c4cc(OC)c(OC)cc4n3)CC2)n1`, the Displacement entry in assay [1] is “inactive”. Further, the values for the Reduction in the assay with Rattus norvegicus [2] and in the assay on Rattus norvegicus [4] were 14% and 15%, respectively. In assay [3], the Ki came to 0.19 nM.

As to `COc1cc2nc(N3CCN(c4ccncn4)CC3)nc(N)c2cc1OC`, in assay [1], the Displacement result was “inactive”. This compound returned an inhibition constant Ki in assay [3] of 0.27 nM. Further, the Reduction in the assay with Rattus norvegicus [5] is 12%; in the assay on Rattus norvegicus [4], 21%.

`COc1nc(OC)nc(N2CCN(c3nc(N)c4cc(OC)c(OC)cc4n3)CC2)n1`: the Displacement entry in assay [1] was “inactive”. The figures for the Reduction with Rattus norvegicus [2] and in the assay on Rattus norvegicus [4] were 22% and 15%, respectively. The compound further had an inhibitory constant (Ki) in assay [3] of 0.08 nM.

On to `COc1cc2nc(N3CCN(c4ccnc(N5CCOCC5)n4)CC3)nc(N)c2cc1OC`, for which, in assay [1], the Displacement entry is “inactive”. This compound also returned a Ki in assay [3] of 0.31 nM. Further, the figures for the Reduction in the assay with Rattus norvegicus [5] and in the assay on Rattus norvegicus [4] were 43% and 16%, respectively.

Consider `COc1cc2nc(N3CCN(c4nc(Oc5ccccc5)nc(Oc5ccccc5)n4)CC3)nc(N)c2cc1OC`, for which, in assay [1], the Displacement result is “inactive”. Also, the values for the Reduction with Rattus norvegicus [6] and in the assay with Rattus norvegicus [7] were 8% and 9%, respectively. Besides, in assay [3], the Ki was 0.87 nM.

As to `COc1cc2nc(N3CCN(c4cc(N(C)C)ncn4)CC3)nc(N)c2cc1OC`, the Reduction in the assay on Rattus norvegicus [2] is reported as 18%; in the assay with Rattus norvegicus [7], 8%.

In the case of `COc1cc2nc(N3CCN(c4nc(N)nc(N)n4)CC3)nc(N)c2cc1OC`, the Displacement result in assay [1] was “inactive”. Besides, the Reduction in the assay with Rattus norvegicus [2] came out at 12%; in the assay with Rattus norvegicus [7], 2%. In assay [3], this compound gave an inhibitory constant (Ki) of 0.47 nM.

As for `COc1cc2nc(N3CCN(c4ncccn4)CC3)nc(N)c2cc1OC`, the Displacement result in assay [1] was “inactive”. The Reduction in the assay with Rattus norvegicus [2] came out at 28%; with Rattus norvegicus [4], 40%. In assay [3], this compound had an inhibition constant (Ki) of 0.26 nM.

For `CCCOc1cc(N2CCN(c3nc(N)c4cc(OC)c(OC)cc4n3)CC2)ncn1`, the Displacement result in assay [1] is “inactive”. The Reduction in the assay on Rattus norvegicus [2] is given as 22%; in the assay on Rattus norvegicus [4] it was 39%. For the same compound, the Ki in assay [3] was 0.36 nM.

`COc1cc2nc(N3CCN(c4ccnc(Oc5ccccc5)n4)CC3)nc(N)c2cc1OC`: the Displacement entry in assay [1] was “inactive”. Moreover, the Reduction is 24% with Rattus norvegicus [2] and 19% in the assay with Rattus norvegicus [4]. Moreover, the inhibition constant Ki in assay [3] worked out at 0.24 nM.

`COc1cc2nc(N3CCN(c4nccc(N(C)C)n4)CC3)nc(N)c2cc1OC`: the Displacement result in assay [1] was “inactive”. Further, the results for the Reduction in the assay with Rattus norvegicus [2] and in the assay on Rattus norvegicus [7] were 13% and 7%, respectively. In addition, the Ki in assay [3] was determined as 0.27 nM.

As to `COc1cc2nc(N3CCN(c4cc(OC(C)C)ncn4)CC3)nc(N)c2cc1OC`, the Displacement result in assay [1] is “inactive”. In addition, the results for the Reduction with Rattus norvegicus [2] and in the assay on Rattus norvegicus [4] were 49% and 55%, respectively. The compound also showed an inhibition constant (Ki) in assay [3] of 0.18 nM.

In the case of `COc1cc(N2CCN(c3nc(N)c4cc(OC)c(OC)cc4n3)CC2)nc(OC)n1`, the Reduction in the assay with Rattus norvegicus [2] turned out to be 20%; with Rattus norvegicus [4], 22%. The Ki in assay [3] worked out at 0.16 nM. Also, in assay [8], the Displacement came to 54.2%.

For the compound `COc1cc2nc(N3CCN(c4cnccn4)CC3)nc(N)c2cc1OC`, the Displacement entry in assay [1] is “inactive”. Further, the results for the Reduction in the assay on Rattus norvegicus [6] and with Rattus norvegicus [7] were 8% and 7%, respectively. In assay [3], this compound returned a Ki of 0.18 nM.

With `COc1cc2nc(N3CCN(c4ccc(OC(C)C)nn4)CC3)nc(N)c2cc1OC`, the Displacement result in assay [1] is “inactive”. This compound had a Ki in assay [3] of 0.29 nM. Besides, the Reduction with Rattus norvegicus [5] stood at 33%; in the assay on Rattus norvegicus [4] it was 39%.

For `COc1cc2nc(N3CCN(c4nccc(-c5ccccc5)n4)CC3)nc(N)c2cc1OC`, in assay [1], the Displacement result was “inactive”. The Reduction in the assay with Rattus norvegicus [2] and in the assay on Rattus norvegicus [4] was 17% in each case. In assay [3], this compound gave an inhibition constant (Ki) of 1.66 nM.
